{"source": "ChEMBL document CHEMBL4665648", "about": "“Potent and selective inhibitors of receptor-interacting protein kinase 1 that lack an aromatic back pocket group” (Bioorg Med Chem Lett, 2019)", "key": {"[1]": {"biological_target": "Serine/threonine-protein kinase Sgk2 (Homo sapiens) (UniProt Q9HBY8)", "sequence (Q9HBY8 whole entry, the tested form may be a part)": "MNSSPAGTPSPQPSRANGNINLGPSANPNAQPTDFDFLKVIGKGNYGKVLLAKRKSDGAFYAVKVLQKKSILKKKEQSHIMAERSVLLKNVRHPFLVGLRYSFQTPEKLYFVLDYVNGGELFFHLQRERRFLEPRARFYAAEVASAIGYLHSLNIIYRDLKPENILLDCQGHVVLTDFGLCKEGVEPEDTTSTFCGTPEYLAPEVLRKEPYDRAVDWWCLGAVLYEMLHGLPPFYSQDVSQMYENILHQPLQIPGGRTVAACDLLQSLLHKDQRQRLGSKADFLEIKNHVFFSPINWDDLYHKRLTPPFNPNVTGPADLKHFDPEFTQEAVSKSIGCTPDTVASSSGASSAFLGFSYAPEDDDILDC", "experiment": "Inhibition of recombinant human GST-tagged full length SGK2 (54 to 427 residues) expressed in baculovirus expression system using Ser/Thr 06 as substrate at 10 uM incubated for 60 mins by Z'-Lyte assay relative to control"}, "[2]": {"experiment": "Clearance in Sprague-Dawley rat at 0.5 mg/kg, iv or 2 mg/kg, po", "type": "ADME, organism-based", "settings": "in vivo"}, "[3]": {"biological_target": "Tyrosine-protein kinase JAK1 (Homo sapiens) (UniProt P23458)", "experiment": "Inhibition of recombinant human GST-tagged JAK1 (866 to 1154 residues) expressed in baculovirus expression system using Tyr 06 as substrate at 10 uM incubated for 60 mins by Z'-lyte assay relative to control"}, "[4]": {"biological_target": "Tyrosine-protein kinase JAK2 (Homo sapiens) (UniProt O60674)", "experiment": "Inhibition of recombinant human GST-tagged JAK2 (809 to 1153 residues) expressed in baculovirus expression system using Tyr 06 as substrate at 10 uM incubated for 60 mins by Z'-lyte assay relative to control"}, "[5]": {"biological_target": "LIM domain kinase 1 (Homo sapiens) (UniProt P53667)", "experiment": "Inhibition of tracer 236 binding to recombinant human His-tagged LIMK1 (285 to 638 residues) expressed in baculovirus expression system at 10 uM incubated for 60 mins by Lanthascreen assay relative to control"}, "[6]": {"biological_target": "Serine/threonine-protein kinase PAK 6 (Homo sapiens) (UniProt Q9NQU5)", "experiment": "Inhibition of recombinant human His-tagged full length PAK6 expressed in baculovirus expression system using Ser/Thr 20 as substrate at 10 uM incubated for 60 mins by Z'-lyte assay relative to control"}, "[7]": {"biological_target": "Inhibitor of nuclear factor kappa-B kinase subunit alpha (Homo sapiens) (UniProt O15111)", "experiment": "Inhibition of recombinant human His-tagged full length IKKalpha expressed in baculovirus expression system at 10 uM incubated for 60 mins by Adapta assay relative to control"}, "[8]": {"biological_target": "Tyrosine-protein kinase ITK/TSK (Homo sapiens) (UniProt Q08881)", "experiment": "Inhibition of recombinant human GST-tagged full length ITK expressed in baculovirus expression system using Tyr 04 as substrate at 10 uM incubated for 60 mins by Z'-lyte assay relative to control"}, "[9]": {"biological_target": "Proto-oncogene tyrosine-protein kinase receptor Ret (Homo sapiens) (UniProt P07949)", "experiment": "Inhibition of recombinant human GST-tagged full length RET (658 to 1114 residues) expressed in baculovirus expression system using Tyr 02 as substrate at 10 uM incubated for 60 mins by Z'-Lyte assay relative to control"}, "[10]": {"biological_target": "ALK tyrosine kinase receptor (Homo sapiens) (UniProt Q9UM73)", "experiment": "Inhibition of recombinant human GST-tagged […] (1058 to 1620 residues) expressed in baculovirus expression system using Tyr 01 as substrate at 10 uM incubated for 60 mins by Z'-Lyte assay relative to control"}, "[11]": {"biological_target": "Vascular endothelial growth factor receptor 3 (Homo sapiens) (UniProt P35916)", "sequence (P35916 whole entry, the tested form may be a part)": "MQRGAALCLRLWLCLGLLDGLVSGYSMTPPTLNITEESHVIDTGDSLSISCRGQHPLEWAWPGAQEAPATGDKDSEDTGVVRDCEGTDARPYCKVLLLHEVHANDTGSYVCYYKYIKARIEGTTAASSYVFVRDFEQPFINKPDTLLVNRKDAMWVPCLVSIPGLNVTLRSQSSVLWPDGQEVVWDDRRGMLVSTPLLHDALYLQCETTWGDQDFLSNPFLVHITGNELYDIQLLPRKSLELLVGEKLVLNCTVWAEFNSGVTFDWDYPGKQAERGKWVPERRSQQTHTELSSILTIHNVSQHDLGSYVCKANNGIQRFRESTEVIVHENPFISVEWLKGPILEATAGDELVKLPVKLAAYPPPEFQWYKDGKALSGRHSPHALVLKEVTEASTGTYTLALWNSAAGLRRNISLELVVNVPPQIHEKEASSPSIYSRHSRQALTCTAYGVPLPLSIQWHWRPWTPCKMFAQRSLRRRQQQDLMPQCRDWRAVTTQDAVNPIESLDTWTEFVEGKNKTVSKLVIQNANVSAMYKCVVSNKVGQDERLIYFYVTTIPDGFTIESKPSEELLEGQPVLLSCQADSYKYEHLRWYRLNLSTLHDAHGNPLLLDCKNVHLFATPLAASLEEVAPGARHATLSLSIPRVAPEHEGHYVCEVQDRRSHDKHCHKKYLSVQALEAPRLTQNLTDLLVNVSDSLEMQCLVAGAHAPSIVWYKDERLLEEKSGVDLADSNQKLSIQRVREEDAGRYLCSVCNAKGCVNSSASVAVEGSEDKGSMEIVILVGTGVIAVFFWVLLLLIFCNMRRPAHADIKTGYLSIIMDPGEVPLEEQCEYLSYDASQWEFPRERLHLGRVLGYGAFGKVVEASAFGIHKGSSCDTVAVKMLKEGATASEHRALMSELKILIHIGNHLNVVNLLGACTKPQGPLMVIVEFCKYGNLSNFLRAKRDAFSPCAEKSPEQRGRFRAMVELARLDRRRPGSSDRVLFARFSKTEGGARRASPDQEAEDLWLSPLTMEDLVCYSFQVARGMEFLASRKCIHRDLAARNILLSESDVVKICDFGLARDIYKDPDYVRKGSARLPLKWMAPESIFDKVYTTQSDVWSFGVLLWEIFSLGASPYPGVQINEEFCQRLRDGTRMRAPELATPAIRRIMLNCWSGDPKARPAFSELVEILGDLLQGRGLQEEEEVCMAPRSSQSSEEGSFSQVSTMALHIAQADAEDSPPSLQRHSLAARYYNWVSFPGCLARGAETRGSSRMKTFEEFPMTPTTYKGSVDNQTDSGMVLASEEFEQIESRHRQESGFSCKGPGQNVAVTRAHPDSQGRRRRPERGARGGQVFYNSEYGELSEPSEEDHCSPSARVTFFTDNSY", "experiment": "Inhibition of recombinant human GST-tagged FLT4 (800 to 1297 residues) expressed in baculovirus expression system using Tyr 04 as substrate at 10 uM incubated for 60 mins by Z'-Lyte assay relative to control"}, "[12]": {"biological_target": "Serine/threonine-protein kinase MRCK alpha (Homo sapiens) (UniProt Q5VT25)", "experiment": "Inhibition of recombinant human His-tagged MRCKA (1 to 473 residues) expressed in baculovirus expression system using Ser/Thr 13 as substrate at 10 uM incubated for 60 mins by Z'-lyte assay relative to control"}, "[13]": {"biological_target": "Receptor-interacting serine/threonine-protein kinase 1 (Mus musculus) (UniProt Q60855)", "experiment": "Inhibition of mouse RIPK1 incubated for 2 hrs by fluorescence polarization assay"}, "[14]": {"biological_target": "Hepatocyte growth factor receptor (Homo sapiens) (UniProt P08581)", "experiment": "Inhibition of recombinant human His-tagged MET (956 to 1390 residues) expressed in baculovirus expression system using Tyr 06 as substrate at 10 uM incubated for 60 mins by Z'-lyte assay relative to control"}, "[15]": {"biological_target": "Tyrosine-protein kinase ABL1 (Homo sapiens) (UniProt P00519)", "experiment": "Inhibition of recombinant human His-tagged full length Abl expressed in baculovirus expression system using Tyr 02 as substrate at 10 uM incubated for 60 mins by Z'-Lyte assay relative to control"}, "[16]": {"biological_target": "Serine/threonine-protein kinase N1 (Homo sapiens) (UniProt Q16512)", "experiment": "Inhibition of recombinant human GST-tagged full length PRK1 expressed in baculovirus expression system using Ser/Thr 07 as substrate at 10 uM incubated for 60 mins by Z'-lyte assay relative to control"}, "[17]": {"biological_target": "Bone morphogenetic protein receptor type-1A (Homo sapiens) (UniProt P36894)", "sequence (P36894 whole entry)": "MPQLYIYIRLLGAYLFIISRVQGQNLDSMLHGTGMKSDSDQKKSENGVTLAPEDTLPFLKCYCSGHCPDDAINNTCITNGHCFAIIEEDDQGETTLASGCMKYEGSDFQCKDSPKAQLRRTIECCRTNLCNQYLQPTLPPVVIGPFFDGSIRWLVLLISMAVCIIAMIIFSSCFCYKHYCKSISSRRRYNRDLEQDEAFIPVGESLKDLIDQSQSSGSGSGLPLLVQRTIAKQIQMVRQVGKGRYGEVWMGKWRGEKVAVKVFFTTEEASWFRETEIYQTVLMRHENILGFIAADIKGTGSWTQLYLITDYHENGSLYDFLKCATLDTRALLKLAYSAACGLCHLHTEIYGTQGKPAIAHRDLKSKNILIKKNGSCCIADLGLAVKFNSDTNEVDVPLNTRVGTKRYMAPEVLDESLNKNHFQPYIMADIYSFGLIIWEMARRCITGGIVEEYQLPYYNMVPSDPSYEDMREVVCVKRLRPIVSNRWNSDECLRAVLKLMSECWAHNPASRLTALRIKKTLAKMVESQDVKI", "experiment": "Inhibition of tracer 178 binding to recombinant human N-terminal GST-tagged full length BMPR1A expressed in insect expression system at 10 uM incubated for 60 mins by Lanthascreen assay relative to control"}, "[18]": {"biological_target": "Tyrosine-protein kinase BTK (Homo sapiens) (UniProt Q06187)", "sequence (Q06187 whole entry)": "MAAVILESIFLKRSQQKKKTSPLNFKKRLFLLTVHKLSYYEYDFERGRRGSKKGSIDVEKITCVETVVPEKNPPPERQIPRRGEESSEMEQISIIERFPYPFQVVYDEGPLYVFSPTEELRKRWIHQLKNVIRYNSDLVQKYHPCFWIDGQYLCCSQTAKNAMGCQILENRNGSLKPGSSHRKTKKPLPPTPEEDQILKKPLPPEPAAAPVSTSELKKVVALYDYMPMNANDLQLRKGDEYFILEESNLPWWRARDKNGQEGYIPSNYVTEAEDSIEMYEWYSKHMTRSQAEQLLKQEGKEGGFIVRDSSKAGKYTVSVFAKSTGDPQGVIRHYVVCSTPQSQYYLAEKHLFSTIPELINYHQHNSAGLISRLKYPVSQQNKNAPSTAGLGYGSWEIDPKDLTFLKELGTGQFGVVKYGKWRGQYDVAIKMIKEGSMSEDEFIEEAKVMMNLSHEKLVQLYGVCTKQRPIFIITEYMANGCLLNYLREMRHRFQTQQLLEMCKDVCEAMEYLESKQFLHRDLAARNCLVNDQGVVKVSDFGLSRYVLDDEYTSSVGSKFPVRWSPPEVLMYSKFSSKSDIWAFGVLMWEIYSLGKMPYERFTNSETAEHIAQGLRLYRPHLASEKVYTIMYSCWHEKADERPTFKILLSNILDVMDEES", "experiment": "Inhibition of recombinant human His-tagged full length BTK expressed in baculovirus expression system using Tyr 01 as substrate at 10 uM incubated for 60 mins by Z'-Lyte assay relative to control"}, "[19]": {"biological_target": "Protein kinase C eta type (Homo sapiens) (UniProt P24723)", "sequence (P24723 whole entry)": "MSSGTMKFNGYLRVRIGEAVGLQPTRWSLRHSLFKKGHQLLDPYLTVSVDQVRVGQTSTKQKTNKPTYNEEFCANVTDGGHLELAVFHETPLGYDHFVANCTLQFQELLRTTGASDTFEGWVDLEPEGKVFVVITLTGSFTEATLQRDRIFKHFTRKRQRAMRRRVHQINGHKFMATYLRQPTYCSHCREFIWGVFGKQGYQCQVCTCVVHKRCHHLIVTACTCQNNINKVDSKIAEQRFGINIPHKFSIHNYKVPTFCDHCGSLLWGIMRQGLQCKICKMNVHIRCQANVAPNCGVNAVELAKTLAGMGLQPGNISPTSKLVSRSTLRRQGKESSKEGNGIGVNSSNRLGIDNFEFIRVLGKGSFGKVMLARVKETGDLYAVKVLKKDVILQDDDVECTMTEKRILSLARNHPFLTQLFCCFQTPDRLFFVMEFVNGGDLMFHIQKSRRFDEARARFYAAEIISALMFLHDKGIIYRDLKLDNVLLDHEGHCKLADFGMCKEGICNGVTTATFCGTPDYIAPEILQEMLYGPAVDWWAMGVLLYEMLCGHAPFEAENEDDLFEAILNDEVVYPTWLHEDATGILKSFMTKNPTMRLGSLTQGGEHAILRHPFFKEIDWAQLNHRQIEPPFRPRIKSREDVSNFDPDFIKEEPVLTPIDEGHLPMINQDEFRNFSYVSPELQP", "experiment": "Inhibition of recombinant human His-tagged full length PKCeta expressed in baculovirus expression system using Ser/Thr 07 as substrate at 10 uM incubated for 60 mins by Z'-lyte assay relative to control"}, "[20]": {"biological_target": "Receptor tyrosine-protein kinase erbB-2 (Homo sapiens) (UniProt P04626)", "experiment": "Inhibition of recombinant human His-tagged ERBB2 (676 to 1255 residues) expressed in baculovirus expression system using Tyr 06 as substrate at 10 uM incubated for 60 mins by Z'-Lyte assay relative to control"}, "[21]": {"biological_target": "Phosphatidylinositol 3-kinase C2 domain-containing subunit gamma (Homo sapiens) (UniProt O75747)", "sequence (O75747 whole entry, the tested form may be a part)": "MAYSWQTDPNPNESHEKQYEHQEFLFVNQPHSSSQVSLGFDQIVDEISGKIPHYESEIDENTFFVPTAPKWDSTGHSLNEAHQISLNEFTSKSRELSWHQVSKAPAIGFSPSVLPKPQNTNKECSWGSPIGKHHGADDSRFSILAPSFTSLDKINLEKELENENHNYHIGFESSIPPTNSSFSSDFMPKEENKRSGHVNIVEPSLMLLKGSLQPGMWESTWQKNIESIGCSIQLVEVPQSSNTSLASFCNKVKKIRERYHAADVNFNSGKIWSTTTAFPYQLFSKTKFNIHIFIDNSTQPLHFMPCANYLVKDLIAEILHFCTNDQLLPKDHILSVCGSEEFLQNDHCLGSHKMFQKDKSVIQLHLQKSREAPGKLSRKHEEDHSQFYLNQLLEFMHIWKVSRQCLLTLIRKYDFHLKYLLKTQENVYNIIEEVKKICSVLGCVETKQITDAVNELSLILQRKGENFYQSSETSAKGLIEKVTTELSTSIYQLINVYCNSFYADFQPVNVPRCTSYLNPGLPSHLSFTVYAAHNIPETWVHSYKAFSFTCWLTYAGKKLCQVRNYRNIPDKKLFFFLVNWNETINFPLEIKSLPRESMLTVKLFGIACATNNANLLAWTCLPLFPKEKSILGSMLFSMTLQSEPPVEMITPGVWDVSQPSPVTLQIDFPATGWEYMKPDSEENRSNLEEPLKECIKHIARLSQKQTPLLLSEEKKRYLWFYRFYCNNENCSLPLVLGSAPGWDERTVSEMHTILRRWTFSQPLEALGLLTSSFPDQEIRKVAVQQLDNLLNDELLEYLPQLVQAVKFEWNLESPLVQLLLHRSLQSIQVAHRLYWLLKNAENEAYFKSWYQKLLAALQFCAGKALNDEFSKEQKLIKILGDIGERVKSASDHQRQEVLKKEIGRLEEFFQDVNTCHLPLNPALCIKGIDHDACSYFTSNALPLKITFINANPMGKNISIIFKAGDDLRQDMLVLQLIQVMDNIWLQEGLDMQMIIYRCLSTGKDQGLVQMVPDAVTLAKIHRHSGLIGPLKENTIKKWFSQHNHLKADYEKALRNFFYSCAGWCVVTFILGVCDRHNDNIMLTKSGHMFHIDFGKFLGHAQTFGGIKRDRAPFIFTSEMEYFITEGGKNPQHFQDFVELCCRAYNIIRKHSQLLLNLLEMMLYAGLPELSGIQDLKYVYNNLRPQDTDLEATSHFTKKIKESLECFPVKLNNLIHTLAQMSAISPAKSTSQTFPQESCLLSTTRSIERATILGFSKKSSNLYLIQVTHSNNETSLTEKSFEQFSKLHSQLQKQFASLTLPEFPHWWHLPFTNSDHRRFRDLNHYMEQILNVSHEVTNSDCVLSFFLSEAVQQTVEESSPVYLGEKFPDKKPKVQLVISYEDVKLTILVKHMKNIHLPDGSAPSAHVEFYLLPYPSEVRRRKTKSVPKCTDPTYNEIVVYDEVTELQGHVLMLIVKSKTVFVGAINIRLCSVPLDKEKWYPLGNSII", "experiment": "Inhibition of recombinant human N-terminal GST-tagged PI3K-gamma (468 to 1203 residues) expressed in insect expression system using PI lipid kinase substrate mixture as substrate at 10 uM incubated for 60 mins by Adapta assay relative to control"}, "[22]": {"biological_target": "Calcium/calmodulin-dependent protein kinase type 1D (Homo sapiens) (UniProt Q8IU85)", "experiment": "Inhibition of recombinant human His-tagged full length CAMK1delta expressed in baculovirus expression system using Ser/Thr 25 as substrate at 10 uM incubated for 60 mins by Z'-Lyte assay relative to control"}, "[23]": {"biological_target": "Serine/threonine-protein kinase PLK1 (Homo sapiens) (UniProt P53350)", "experiment": "Inhibition of recombinant human His-tagged full length PLK1 expressed in baculovirus expression system using Ser/Thr 16 as substrate at 10 uM incubated for 60 mins by Z'-lyte assay relative to control"}, "[24]": {"biological_target": "Ephrin type-A receptor 8 (Homo sapiens) (UniProt P29322)", "experiment": "Inhibition of recombinant human GST-tagged EPHA8 (565 to 1005 residues) expressed in baculovirus expression system using Tyr 02 as substrate at 10 uM incubated for 60 mins by Z'-Lyte assay relative to control"}}, "note": "Activity calls are given as the source filed them. The rule behind the calls is not given here.", "data": [{"smiles": "CN1C(=O)[C@@H](NC(=O)c2n[nH]c3ncc(C(F)(F)C(F)(F)F)cc23)COc2ccccc21", "values": [{"measurement": "inhibition", "setting": "[1]", "result": 4, "unit": "%"}, {"measurement": "clearance", "setting": "[2]", "result": 7.1, "unit": "mL/min/kg"}, {"measurement": "inhibition", "setting": "[3]", "result": 5, "unit": "%"}, {"measurement": "inhibition", "setting": "[4]", "result": 0, "unit": "%"}, {"measurement": "inhibition", "setting": "[5]", "result": 5, "unit": "%"}, {"measurement": "inhibition", "setting": "[6]", "result": 7, "unit": "%"}, {"measurement": "inhibition", "setting": "[7]", "result": -4, "unit": "%"}, {"measurement": "inhibition", "setting": "[8]", "result": -2, "unit": "%"}, {"measurement": "inhibition", "setting": "[9]", "result": 4, "unit": "%"}, {"measurement": "inhibition", "setting": "[10]", "result": 3, "unit": "%"}, {"measurement": "inhibition", "setting": "[11]", "result": -3.5, "unit": "%"}, {"measurement": "inhibition", "setting": "[12]", "result": 0, "unit": "%"}, {"measurement": "inhibition", "setting": "[13]", "result": "inactive"}, {"measurement": "inhibition", "setting": "[14]", "result": 4.5, "unit": "%"}, {"measurement": "inhibition", "setting": "[15]", "result": 5, "unit": "%"}, {"measurement": "inhibition", "setting": "[16]", "result": 1, "unit": "%"}, {"measurement": "inhibition", "setting": "[17]", "result": 5, "unit": "%"}, {"measurement": "inhibition", "setting": "[18]", "result": -2, "unit": "%"}, {"measurement": "inhibition", "setting": "[19]", "result": 5, "unit": "%"}, {"measurement": "inhibition", "setting": "[20]", "result": 2, "unit": "%"}, {"measurement": "inhibition", "setting": "[21]", "result": -5, "unit": "%"}, {"measurement": "inhibition", "setting": "[22]", "result": 5, "unit": "%"}, {"measurement": "inhibition", "setting": "[23]", "result": 2.5, "unit": "%"}, {"measurement": "inhibition", "setting": "[24]", "result": 0, "unit": "%"}]}]}
